Experimental findings from PubChem BioAssay (NCI) are described below.

Assay in all cases: growth of human tumour cells (NCI), 48 h
The subject of experiment [1] is HOP-92 NSCLC.
Experiment [2] deals with A549 NSCLC.
In experiment [3] the test system is CCRF-CEM leukemia.
In experiment [4] the test system is HL-60(TB) leukemia.
The test system of experiment [5] is OVCAR-3 ovarian.
For experiment [6], the system named is MALME-3M melanoma.
In experiment [7] the test system is HOP-62 NSCLC.
Experiment [8] concerns OVCAR-4 ovarian.
In experiment [9] the test system is SF-539 CNS.
Experiment [10] deals with SK-MEL-28 melanoma.
The subject of experiment [11] is SNB-19 CNS.
In experiment [12] the test system is TK-10 renal.
The test system of experiment [13] is SW-620 colon.
Experiment [14] relates to KM12 colon.
Experiment [15] relates to IGROV1 ovarian.
Experiment [16] has as its system ACHN renal.
The subject of experiment [17] is UACC-257 melanoma.

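48-hour exposure; five concentrations; linearly interpolated endpoints. At the TGI there is no net growth.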 Where only a bound is given, the exact number is not on record here.

In the case of `c1ccc(CCCC2Sc3cccc4cccc(c34)S2)cc1`, the TGI in experiment [1], in [2], in experiment [3], in [4], in experiment [5] and in experiment [6] was greater than 100 µM each time. Besides, the TGI in experiment [7], in experiment [8], in [9], in [10], in experiment [11] and in experiment [12] was greater than 100 µM in each case. Besides, the TGI in [13], in [14], in [15] and in [16] was greater than 100 µM throughout.

For `Cc1nc2nn(Cc3ccccc3)cc2c(=O)o1`, the TGI in [2], in experiment [3], in experiment [4], in [5], in experiment [6] and in experiment [7] was greater than 100 µM each time. Moreover, the TGI in experiment [9], in [11], in experiment [12], in experiment [13], in [14] and in [17] was greater than 100 µM throughout. For the same molecule, the TGI in experiment [15] and in [16] was greater than 100 µM each time.

On to `CCCCCCCCCCCCC/C=C1\C[C@H](O)COC1=O`, for which the TGI came to 24.7 µM in experiment [1]; 38.7 µM in experiment [2]; 36.6 µM in [3]; 39.9 µM in experiment [4]; 31.7 µM in [5]; 35.5 µM in experiment [6]. For the same molecule, the TGI in [7] is 31.8 µM; in [8], 32.7 µM; in [9], 35.8 µM; in experiment [10], 30.3 µM; in experiment [11] it was 32.9 µM; in experiment [12] it was 31.8 µM. In addition, the TGI came to 28.8 µM in [13]; 30.1 µM in [14]; 28.4 µM in experiment [17]; 32.3 µM in [15]; 29.4 µM in experiment [16].

Consider `COc1ccc(OC)c(/C=C/C(=O)C(C)(C)C)c1`, for which the TGI came out at 44.1 µM in [1]; 82.1 µM in [2]; 44.5 µM in experiment [3]; 38.7 µM in experiment [4]; 49.5 µM in experiment [5]; 45.3 µM in experiment [6]. For the same molecule, the TGI in experiment [7] came out at 50.8 µM; in experiment [8], 49 µM; in experiment [9], 38.4 µM; in [10], 31.8 µM; in experiment [11] it was 32.4 µM; in experiment [12], 72.7 µM. Also, the TGI in [13] came out at 38.6 µM; in experiment [14] it was 52.9 µM; in experiment [15], 42.6 µM; in experiment [16] it was 39.7 µM.

`CCOC(=O)C1(Br)C(c2ccccc2)NC(=O)N(C2OC(COC(=O)c3ccccc3)C(OC(=O)c3ccccc3)C2OC(=O)c2ccccc2)C1(C)Br` (centres undefined): the TGI in experiment [1] was 69.9 µM; in experiment [2] it was greater than 100 µM; in [3] it was 18.8 µM; in experiment [5], greater than 89.6 µM; in experiment [6], 66.7 µM; in [7], greater than 100 µM. Further, the TGI in experiment [8] is 43.4 µM; in experiment [9], greater than 100 µM; in experiment [10] it was greater than 83.8 µM; in experiment [11], greater than 100 µM; in experiment [12] it was greater than 100 µM; in [13] it was 22.4 µM. The TGI was 99.6 µM in [14], 52.4 µM in experiment [17], greater than 100 µM in experiment [15] and greater than 100 µM in experiment [16].

Consider `Nc1ccc(C(=O)NN2C(=O)C(Cl)C2c2cc(Br)cc(Br)c2O)cc1` (centres undefined), for which the TGI was greater than 100 µM in [1]; 91.1 µM in experiment [2]; greater than 100 µM in experiment [3]; greater than 100 µM in experiment [4]; 97.9 µM in experiment [6]; greater than 100 µM in experiment [7]. The TGI is greater than 100 µM in [8]; 57 µM in experiment [9]; greater than 100 µM in experiment [10]; greater than 100 µM in [11]; greater than 100 µM in experiment [12]; greater than 100 µM in experiment [13]. Moreover, the TGI in [14] was greater than 100 µM; in experiment [17] it was 85.9 µM; in experiment [15], greater than 100 µM; in [16] it was 61.9 µM.

For `CC(OC1CC(=O)CC2C(=O)C=CC(=O)C12)c1ccccc1` (centres undefined), the TGI in experiment [1] came out at 2.97 µM; in [2], 40.2 µM; in experiment [3], 9.54 µM; in experiment [4] it was 20 µM; in experiment [5], 33.3 µM; in [6], 34.9 µM. The TGI in experiment [7] was greater than 58.8 µM; in [8], 32.4 µM; in [9] it was 34.5 µM; in experiment [10], 36.4 µM; in experiment [11] it was greater than 55.9 µM; in experiment [12], 31.6 µM. Also, the TGI in [13] came out at 27.3 µM; in experiment [14] it was 32.4 µM; in experiment [17], 35.4 µM; in experiment [15], 31.4 µM; in [16], 24.1 µM.

With `O=[N+]([O-])c1cc2c(cc1O)[nH]c1cccc([N+](=O)[O-])c12`, the TGI in experiment [2], in [3], in experiment [4], in [5], in [6] and in experiment [7] was greater than 100 µM throughout. In addition, the TGI in experiment [8], in experiment [9], in experiment [10], in [11], in experiment [12] and in [13] was greater than 100 µM each time. Further, the TGI in [14], in [17] and in experiment [16] was greater than 100 µM each time.

For `CC(C)c1cccc(C(C)C)c1NC(=O)C(=O)CC(=O)CC(c1ccccc1)c1c(O)c2ccccc2oc1=O` (centres undefined), the TGI in [1], in [2], in experiment [3], in experiment [4], in [5] and in [6] was greater than 100 µM each time. The TGI in [7], in experiment [8], in experiment [9], in experiment [10], in experiment [11] and in [12] was greater than 100 µM throughout. In addition, the TGI in [13], in experiment [14], in experiment [17], in experiment [15] and in experiment [16] was greater than 100 µM throughout.
